The record followed here is ChEMBL document CHEMBL1133368, “Preparation of 5-(2,6-dideoxy-2-fluoro-alpha-L-talopyranosyloxy)-6-hydroxynap htho[2,3- f]quinoline-7,12-dione (FT-Alz), a new-type, potentially antitumor substance with various biological activities” (Bioorg Med Chem Lett, 2000).

Broadly, the pIC50 is the IC50 on a negative log10 scale, so that one unit is a factor of ten. Usually IC50 stands for the concentration needed to halve the response being measured. A lower IC50 goes with greater potency in that assay.

pIC50: −log10 of the molar value. Where only a bound is given, the exact number is not on record here.

For assay [1], the system named is Melanoma cell line. As to the kind of experiment: Growth inhibitory concentration of compound was measured against human melanoma cell line (HMV-1). It counts as functional, cell-based.
Assay [2] has as its system K562. As to the kind of experiment: Growth inhibitory concentration of compound was measured against human leukemia cell line (K562). Format: functional, cell-based.
Assay [3] concerns KB. As to the kind of experiment: Growth inhibitory concentration of compound was measured against human nasopharyngeal carcinoma cell line (KB). Format: functional, cell-based.
For assay [4], the system named is L1210. Put plainly: Growth inhibitory concentration of compound was measured against murine leukemia cell line (L1210). It counts as functional, cell-based. The following applies: Mus musculus.
In assay [5] the test system is MKN-1. As to the kind of experiment: Growth inhibitory concentration of compound was measured against human gastric adenocarcinoma cell line (MKN-1). Format: functional, cell-based.
Assay [6] deals with P388. As to the kind of experiment: Growth inhibitory concentration of compound was measured against DOX resistant P388 cell line (P388 /DOX). It counts as functional, cell-based. The following applies: Mus musculus.
Assay [7] deals with P388. As to the kind of experiment: Growth inhibitory concentration of compound was measured against murine leukemia cell line (P388). It counts as functional, cell-based. The conditions noted are these: Mus musculus.
Assay [8] has as its system T-24. Put plainly: Growth inhibitory concentration of compound was measured against human bladder carcinoma cell line (T24). It counts as functional, cell-based.
Assay [9] has as its system PC-14. Put plainly: Growth inhibitory concentration of compound was measured against human lung carcinoma cell line (PC-14). Format: functional, cell-based.
Assay [10] concerns the target DNA topoisomerase II (Homo sapiens, UniProt P11388+Q02880). Put plainly: The compound was tested for its inhibitory activity against topoisomerase II. It counts as protein assay.

Regarding `COc1cccc2c1C(=O)c1c(O)c3c(c(O)c1C2=O)C[C@@](O)(C(=O)CO)C[C@@H]3O[C@H]1C[C@H](N)[C@H](O)[C@H](C)O1` [DOXORUBICIN], the negative-log IC50 (pIC50) in [1] is 6.55; in assay [2] it was 6.92; in assay [3], 6.66; in assay [4] it was 7.30; in [5], 6.19; in assay [6], less than 6.05. Further, the pIC50 is 7.70 in assay [7], 6.19 in assay [8] and 5.72 in [9].

Regarding `CC1OC(Oc2c(O)c3c(c4cccnc24)C(=O)c2ccccc2C3=O)C(F)C(O)C1O` (configuration not stated), the pIC50 in [1] is 6.23; in [2], 6.15; in assay [3] it was 6.57; in assay [4], 6.49; in [5], 6.14; in assay [6], 6.09. Moreover, the pIC50 is 6.11 in assay [7], 6.44 in assay [8] and 6.15 in assay [9]. The compound further yielded an IC50 in assay [10] of 5000 nM.

`O=C1c2ccccc2C(=O)c2c1c(O)c(O)c1ncccc21`: the negative-log IC50 (pIC50) is 5.39 in [1]; 5.14 in [2]; 5.52 in assay [3]; 5.14 in assay [4]; 4.85 in assay [5]; 5.48 in assay [6]. In addition, the pIC50 is 5.16 in assay [7], 4.85 in assay [8] and less than 4.77 in [9].

Turning to `CC1OC(Oc2c3c(c4cccnc4c2OC2OC(C)C(O)C(O)C2F)C(=O)c2ccccc2C3=O)C(F)C(O)C1O` (configuration not stated), the negative-log IC50 (pIC50) in [1] was 5.12; in assay [2], 5.24; in assay [3], less than 5.07; in assay [4], less than 5.07; in assay [5], less than 5.07; in assay [6], less than 5.07. For the same compound, the pIC50 in [7], in assay [8] and in [9] was less than 5.07 in each case.
